# Source: patent US10683334B2 (INDIANA UNIVERSITY RESEARCH AND TECHNOLOGY CORPORATION, priority 2016, dated 2020)
# How the values were obtained:
# physchem = test: physchem
# Experimental: 1 or 5 mg of pre-lyophilized peptide in 2 mL Eppendorf tube was treated with 200-400 uL of phosphate buffer (PBS: 50 mM sodium phosphate, 150 mM of sodium chloride, pH7.4). Samples were then vortexed and sonicated for 10 min then equilibrated at RT for 1H, and then centrifuged at 10 krpms for 10 min Concentration of the peptides in obtained supernatant was determined by measuring UV absorbance at λ=280 nm. […] Concentration in aliquots was reassessed as previously with UV absorbance. Change in peptide concentration was evaluated after 48 h and 7 days of storage at 4° C.
# [1] = Thioflavin-T fluorescence assay (fibrillation/aggregation); assay type: physicochemical
# Experimental: The Thioflavin T (ThT) Assay measures changes of in fluorescence intensity of ThT upon binding to amyloid fibrils. The enhanced fluorescence can be observed by fluorescence microscopy or by fluorescent spectroscopy. The spectroscopic assay is commonly used to monitor fibrilization over time, but the assay is not strictly quantitative and differences in binding have been observed for samples after lyophilization.
# Prepare a ThT stock solution by adding 8 mg ThT to 10 mL phosphate buffer (10 mM phosphate, 150 mM NaCl, pH 7.0) and filter through a 0.2 μm syringe filter. This stock solution should be stored in the dark and is stable for about one week.
# Dilute the stock solution into the phosphate buffer (1 mL ThT stock to 50 mL buffer) on the day of analysis to generate the working solution.
# Add an aliquot of untreated protein solution (5-10 μL) to the cuvette, stir for 1 min, and measure the intensity over 60 s. This serves as the control sample. […]
# Lyophilized peptides were dissolved in appropriate buffer at concentration ˜8-9 mg/mL (1-5 in 0.1N hydrochloric acid; 7, 9 and 11 in 50 mM Sodium Phosphate, 150 mM of sodium chloride, pH7.4). Exact concentration was calculated based on UV absorbance at λ=280 nm and all samples were dissolved further down to equal concentration of 5 mg/mL. […] Fibrillation was measured according to modified Thioflavin-T fluorescence assay protocol. […]
# [2] = test system: insulin induced hypoglycemia in diabetic pigs; test: Pig study: reversal of insulin induced hypoglycemia; assay type: in vivo, Yucatan miniature swine; conditions: insulin detemir 0.5 U/kg s.c. at 0 min, peptide 10 nmoles/kg at 240 min
# Experimental: Male diabetic Yucatan miniature swine (4 animals/group) were fed and administered NPH insulin at 8:00 AM and at 12 h prior to the initiation of the study, then fasted until the completion of the final blood glucose measurements. Insulin NPH doses were adjusted based on glucose levels and the animals were randomized to achieve balanced glucose levels across groups. […] Blood glucose was measured at −5, 0 (Pre-Dose), 30, 60, 120, 240, 245, 250, 260, 280, 300, 330, 360 and 480 minutes using a handheld glucometer. The same instrument was used for all animals and two readings were taken per time point to insure consistency. The statistical analysis of the results obtained in the in vivo experiments was performed using Prism 6.0h (GraphPad Software, Calif.) applying regular two-way ANOVA followed by Sidak multiple comparison test between the two treatments. […] The results are presented as means±SEM of four replicates per group.
# glucagon receptor = glucagon receptor (Homo sapiens, UniProt P47871); test: Luciferase-based glucagon assay (cAMP reporter, HEK293 cells)
# glucagon receptor, sequence (P47871 26-477): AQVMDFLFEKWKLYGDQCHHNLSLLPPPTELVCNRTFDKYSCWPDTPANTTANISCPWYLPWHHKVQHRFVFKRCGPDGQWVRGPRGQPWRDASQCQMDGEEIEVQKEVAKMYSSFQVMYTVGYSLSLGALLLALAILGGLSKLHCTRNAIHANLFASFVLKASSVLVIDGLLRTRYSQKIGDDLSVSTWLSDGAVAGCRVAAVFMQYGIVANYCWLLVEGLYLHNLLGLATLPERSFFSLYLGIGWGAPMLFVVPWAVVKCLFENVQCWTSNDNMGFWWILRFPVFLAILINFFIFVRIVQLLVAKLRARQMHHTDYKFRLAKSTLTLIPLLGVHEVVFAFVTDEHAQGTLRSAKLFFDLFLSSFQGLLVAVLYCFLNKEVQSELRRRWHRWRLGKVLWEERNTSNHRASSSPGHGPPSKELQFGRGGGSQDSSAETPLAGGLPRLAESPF
# Experimental: At the end of the incubation 100 microliters of LucLite luminescence substrate reagent (Perkin-Elmer, Wellesley, Mass.) were added to each well. […] The luminescent light output indicates activation of the luciferase reporter gene, which in turn is a measure of the activation of the receptor.
smiles,measurement,setting,value
"CSCC[C@H](NC(=O)[C@H](CC(C)C)NC(=O)[C@H](Cc1c[nH]c2ccccc12)NC(=O)[C@H](CCC(N)=O)NC(=O)[C@@H](NC(=O)[C@H](Cc1ccccc1)NC(=O)[C@H](CC(=O)O)NC(=O)[C@H](CCC(N)=O)NC(=O)[C@H](C)NC(=O)[C@H](CCCNC(=N)N)NC(=O)[C@H](CCCNC(=N)N)NC(=O)C(C)(C)NC(=O)[C@H](CC(=O)O)NC(=O)[C@H](CC(C)C)NC(=O)[C@H](Cc1cccnc1)NC(=O)[C@H](CCCCN)NC(=O)[C@H](CO)NC(=O)[C@H](Cc1cccnc1)NC(=O)[C@H](CC(=O)O)NC(=O)[C@H](CO)NC(=O)[C@@H](NC(=O)[C@H](Cc1cccnc1)NC(=O)[C@@H](NC(=O)CNC(=O)[C@H](CCC(N)=O)NC(=O)[C@H](CO)NC(=O)[C@@H](N)Cc1cnc[nH]1)[C@@H](C)O)[C@@H](C)O)C(C)C)C(=O)N[C@@H](CC(N)=O)C(=O)N[C@H](C(=O)O)[C@@H](C)O [Compound 9, HSQGTXTSDXSKXLDZRRAQDFVQWLMNT]",solubility,physchem; pH 7,> 10000 µg/mL
same,solubility at 1 h,physchem; pH 7.4,> 10000 µg/mL
same,"resistance to fibrillation (thioflavin-T fluorescence, FIG. 2)","[1]; 5 mg/mL, 37° C. 48H without agitation, then 40° C. 48H with agitation",resistant to fibrillation
same,"stability / resistance to fibrillation (ThT assay, FIG. 8)","[1]; 45 hours at 37° C., pH 7.0 in phosphate buffer",showed stability
same,reversal of insulin induced hypoglycemia (blood glucose),[2],reverse insulin induced hypoglycemia
same,in vitro efficacy / potency (in words),glucagon receptor; luciferase-based glucagon assay,fully potent
same,EC50,"glucagon receptor; read-out: EC50 [nM] (SDV), luciferase-based glucagon assay, SDV in brackets",0.0714 nM
same,% bioactivity of GCG,glucagon receptor; relative to native glucagon,28%
